Here are results for two compounds from patent US10035791B2, “Bicyclic compound and pharmaceutical composition thereof for treating stroke and use thereof” (China Medical University, priority 2016, dated 2018).

In assay [1] the test system is ischemic rats. In words: Locomotor activity test. The settings on record: 1 mg/kg, vs control group, FIGS. 19B to 19D. Format: in vivo, Sprague-Dawley (SD) rats. An excerpt: (§1) The ischemic rats are induced by an ischemia-reperfusion model to simulate transient focal cerebral ischemia in rats. Test animals are male Sprague-Dawley (SD) rats weighing 250-300 g. The rats are anesthetized with chloral hydrate (0.4 g/kg IP) and subjected to cerebral ischemia. The ischemia-reperfusion model is induced by ligations of bilateral common carotid arteries (CCAs) and a right middle cerebral artery (MCA). The bilateral CCAs are clamped with non-traumatic arterial clips, and the right MCA is ligated with an 10-0 nylon suture. After 90 minutes ischemia, the suture on the MCA and the arterial clips on CCAs are removed to allow reperfusion. Core body temperature is monitored with a thermistor probe (Hewlett-Packard Model 21090A probe, Hewlett-Packard Company, Andover, Mass.), and maintained at 37° C. with a heating pad during anesthesia. […]
The locomotor activity test is measured for about 2 hours using VersaMax Animal Activity Monitoring System (Accuscan Instruments), which contains 16 horizontal infrared sensors and 8 vertical infrared sensors. The vertical sensors are situated 10 cm above the chamber floor and the locomotor activity is quantified by a number of a beam broken by the rat's movement in the chamber. Three vertical-movement parameters are measured: (i) vertical activity (ii) vertical time (iii) number of vertical movements by the manufacturer's instruction.

For assay [2], the system named is NSCs. In words: Proliferation index (PI) measurement of CFSE-labelled NSCs by flow cytometry. The settings on record: 1 μM for 16 hours; control group 4.37, FIG. 11C. The class given is cell-based, mice. Here is the method: To prepare the NSCs, after removal of meninges, subventricular zones (SVZ) of lateral ventricles from adult mice brain (4 week-of-age) are aseptically isolated and dissociated as previously described (J Cell Sci 2006; 119, 4467-4474). All steps are operated under sterile conditions. Then, neurosphere culture are prepared in neurobasal (NB) medium (Gibco BRL) supplemented with 2% of B27 (Gibco BRL), 2 mM of L-glutamine (PAN Biotech), 100 U/ml of penicillin/0.1 mg/L of streptomycin (Gibco BRL). For maintenance and expansion of the cultures, the NB/B27 is further supplemented with 2 μg/mL of heparin (Sigma), 20 ng/mL of FGF-2 (R&D Systems) and 20 ng/mL of EGF (R&D Systems). Neurosphere cultures are maintained at 37° C. in a humidified incubator with 5% CO2. For clonal/low density cultures, primary neurospheres grown at high density are dissociated into a single cell suspension and reseeded into 96-well plates at 100 cells per ml of media and the number of newly formed neurospheres is counted after 7 days. In addition, the Bmi-1 expressions, SOX2 expressions, Nestin expressions, Musashi-1 expressions, BrdU expressions and ki-67 expressions of the newly formed neurospheres are determined by the immunofluorescence staining.
To analyze whet her he Compound 1 modulates the NSCs proliferation, this example examines the effect of the HIF-1α-Bmi-1 pathway on the self-renewal of the neurosphere. […]
For orientation: A flow cytometer gives signals particle by particle.

Assay [3] relates to ischemic rats. Briefly: Grip strength test. The settings on record: 1 mg/kg, vs control group, FIG. 20. The class given is in vivo, Sprague-Dawley (SD) rats.
Description: as §1
The grip strength is analyzed using Grip Strength Meter (TSE-Systems). In brief, the grip strength of each forelimb of the ischemic rat is measured separately from the mean of 20 pulls, and the ratio of ipsilateral grip strength to contralateral grip strength is calculated. In addition, the ratio of grip strength post-cell-treatment and pre-cell-treatment is also calculated, and the changes are presented as a percentage of the pre-cell-treatment value.

Assay [4] has as its system NSC in the brain of the ischemic rats. In words: Proliferation marker expressions (BrdU, ki-67) in the SVZ and DG of the ischemic rats. The class given is in vivo, Sprague-Dawley (SD) rats. An excerpt: The ischemic rats are induced by an ischemia-reperfusion model to simulate transient focal cerebral ischemia in rats. Test animals are male Sprague-Dawley (SD) rats weighing 250-300 g. The rats are anesthetized with chloral hydrate (0.4 g/kg IP) and subjected to cerebral ischemia. The ischemia-reperfusion model is induced by ligations of bilateral common carotid arteries (CCAs) and a right middle cerebral artery (MCA). The bilateral CCAs are clamped with non-traumatic arterial clips, and the right MCA is ligated with an 10-0 nylon suture. After 90 minutes ischemia, the suture on the MCA and the arterial clips on CCAs are removed to allow reperfusion. Core body temperature is monitored with a thermistor probe (Hewlett-Packard Model 21090A probe, Hewlett-Packard Company, Andover, Mass.), and maintained at 37° C. with a heating pad during anesthesia. After recovery from anesthesia, rat body temperature is maintained at 37° C. with a heat lamp.
The ischemic rats treated with different dosages of the Compound 1 (0.1 mg/kg, 1 mg/kg and 10 mg/kg) and the ischemic rats reduced the Bmi-1 expressions or the HIF-1α expressions and then treated with 1 mg/kg of the Compound 1 are decapitated, and the brain tissues thereof are performed the immunofluorescence staining to detect the proliferation marker expressions (BrdU and ki-67) in the brains of the ischemic rats.

Assay [5] has as its system Bmi-1. In words: Bmi-1 expressions of the NSCs in the SVZ and the DG of the ischemic rats, immunofluorescence staining. Format: in vivo, Sprague-Dawley (SD) rats.
Where [6] appears, read: 2-ME2 treatment plus 1 mg/kg Compound 1.

The structures appear in SMILES notation.

On to `COC(=O)C1=CO[C@@H](O)[C@@H]2C(COC(=O)[C@@H](N)Cc3ccccc3)=CC[C@H]12` [Compound 1], for which the “locomotor activity (vertical activity, vertical time, number of vertical movements)” value in assay [1] is “significant improvement”. Further, in assay [2], the “proliferation index (PI) of the NSCs” value is given as 6.77. In assay [3], the grip strength ratio entry is “much better”. The “numbers of BrdU+ cells in the SVZ and the DG of the brains of the ischemic rats” value in assay [4] (0.1, 1, 10 mg/kg vs control, in particular 1 mg/kg, FIGS. 15A to 15D) is “significant enhancement”. Besides, the “numbers of ki-67+ cells in the SVZ and the DG of the brains of the ischemic rats” value in assay [4] (0.1, 1, 10 mg/kg vs control, in particular 1 mg/kg, FIGS. 15E to 15H) was “significant enhancement”. Also, in assay [5] (0.1, 1, 10 mg/kg vs control, in particular 1 mg/kg, FIGS. 14A to 14D), the “number of Bmi-1+Nestin+ NSCs in the SVZ and the DG” value is on record as “significantly increases”.

Turning to `COc1cc2c(cc1O)CC[C@@H]1[C@@H]2CC[C@]2(C)[C@@H](O)CC[C@@H]12` [Compound 2-ME2, 2-Methoxyestradiol, reference compound], in assay [4] (setting [6]), the “Compound 1 increased numbers of the BrdU+ cells in the SVZ and the DG” value was “abolishes”; the “Compound 1 increased numbers of the ki-67+ cells in the SVZ and the DG” value was “abolishes”. Also, the “Compound-1-induced enhancement of Bmi-1+Nestin+ NSCs numbers” value in assay [5] (100 mg/kg 2-ME2 intraperitoneal plus 1 mg/kg Compound 1) was “inhibits”.
